US7462635B2, “Thiazole and oxazole VDAC regulator” (Takeda Pharmaceutical Company Limited, priority 2002, dated 2008)

How the values were obtained:
PC12 cells [1] = assay: Cytochrome c leakage suppressing action (cytochrome c ELISA of cytoplasmic protein); format: cell-based; settings: DMEM with 0.5% FCS, 0.3 μmol/L Compound (5), 16 hours, 0.5% FCS group without compound 19.4
Experimental: The effect of Compound (5) on VDAC function was evaluated by determining the amount of cytochrome c leakage in the cytoplasm of PC12 cells.
PC12 cells, pre-cultured in a DMEM (Dulbecco's Modified Eagle's Medium) containing 10% FCS (Fetal Calf Serum), were sown to a culture dish of 10 cm diameter (Falcon) and cultured until they became nearly confluent. After the culture dish was washed with DMEM, a DMEM containing 0.5% FCS (0.5% FCS group) or a DMEM containing 0.5% FCS and 0.3 μmol/L Compound (5) (0.5% FCS+Compound (5) group) was added, and the cells were further cultured for 16 hours. The cells suspended in the culture broth and the cells adhering to the culture dish, detached by trypsin-EDTA treatment, were recovered. The recovered cells, after being washed with PBS, were ice-cooled in a digitonin solution [10 mmol/L HEPES, 0.3 mol/L mannitol, 0.1% (w/v) BSA, 100 μmol/L digitonin] (100 μL) for 5 minutes to extract cytoplasmic protein. After the obtained cytoplasmic protein was centrifuged at 8500×g for 5 minutes, 12 μL of the supernatant was analyzed using an assay kit [cytochrome c ELISA kit (MBL) and […] (Pierce), respectively] to determine its cytochrome c content and protein content. Subsequently, the cytochrome c content per unit amount of total protein was calculated, and this was taken as the amount of cytochrome c leakage (ng/mg). The results are shown in [Table 1].

PC12 cells [2] = assay: Apoptosis-suppressing action: nucleosome content (Cell Death Detection ELISA), low serum-induced apoptosis; format: cell-based; settings: DMEM with 0.5% FCS, 0.3 μmol/L Compound (5), 24 hours, 10% FCS group = 100%, 0.5% FCS group 422
Experimental: The apoptosis-suppressing action of Compound (5) was evaluated by determining the nucleosome content in PC12 cells.
PC12 cells, pre-cultured in a DMEM containing 10% FCS, were sown to a 24-well culture plate to obtain a concentration of 6×10^4 cells/well, and cultured for 24 hours. After the culture plate was washed with DMEM, a DMEM containing 0.5% FCS (0.5% FCS group) or a DMEM containing 0.5% FCS and 0.3 μmol/L Compound (5) (0.5% FCS+Compound (5) group) was added, and the cells were further cultured for 24 hours. Also, as a control group, the same procedures were carried out using a DMEM containing 10% FCS (10% FCS group). The cells suspended in the culture broth and the cells adhering to the culture plate, detached by trypsin-EDTA treatment, were recovered. According to the protocol of an apoptosis assay kit with nucleosome detection as an index (Cell Death Detection ELISA, Roche), the recovered cells were suspended in 500 μL of the cytolytic solution attached to said assay kit. After the suspension was ice-cooled for 30 minutes, it was centrifuged at 15, 000 rpm for 10 minutes and 400 μL of the supernatant was recovered. Said supernatant was diluted 2 fold and subjected to ELISA to determine its nucleosome content. Subsequently, taking the nucleosome content in the 10% FCS group as 100%, percentage in each group was calculated. The results are shown in [Table 2].

PC12 cells [3] = assay: Mitochondria membrane potential-stabilizing action using Rodamin 123; format: cell-based; settings: FCS-free DMEM, 3 μmol/L, 4 hours, FCS addition group = 100%, non-addition group 131.2±12.9%, mean±standard deviation, n=8
Experimental: The mitochondria membrane potential-stabilizing action of Compound (5) was evaluated using Rodamin 123 (trade name, Molecular Probe).
(§1) After PC12 cells, pre-cultured in a DMEM containing 10% fetal calf serum (FCS), were suspended in the same medium to obtain a concentration of 2×10^5 cells/mL, the obtained suspension was sown to a 96-well culture plate to obtain a concentration of 0.1 mL/well and cultured for 24 hours. After said culture-plate was washed with DMEM, a solution obtained by diluting Compound (5) in FCS-free DMEM to obtain a concentration of 3 μmol/L was added, and cultivation was carried out for 4 hours [Compound (5) addition group]. […]
(§2) Subsequently, to each well of the culture plate, Rodamin 123 (trade name, Molecular Probe), which is a mitochondria membrane potential indicator, was added to obtain a concentration of 1 μmol/L; fluorescence just after the addition and after the plate was allowed to stand in a 5% CO2 incubator at 37° C. for 10 minutes was determined using a Fluoroscan (Flow Laboratories) [excitation wavelength (Ex.): 485 nm, emission wavelength (Em.): 538 nm], and its variation was obtained.
Furthermore, taking the fluorescence variation in the FCS addition group as 100%, relative values of fluorescence variation in the Compound (5) addition group and the Compound (5) non-addition group were calculated.

VDAC-3 = molecular target: T1, VDAC-3 (Homo sapiens, UniProt Q9Y277); assay: Identification of Compound (5)-binding protein: elution from Compound A-immobilized latex particles, SDS-PAGE, TOF-MS; settings: SK-N-SH nuclear fraction protein; elution with 300 μM Compound (5), 4° C., 1.5 hours; silver staining
T1 construct: protein was extracted from the nuclear fraction of human neuroblastoma SK-N-SH (ATCC); endogenous in cells; host or cells: SK-N-SH human neuroblastoma cells (ATCC)
T1 sequence (Q9Y277 1-283): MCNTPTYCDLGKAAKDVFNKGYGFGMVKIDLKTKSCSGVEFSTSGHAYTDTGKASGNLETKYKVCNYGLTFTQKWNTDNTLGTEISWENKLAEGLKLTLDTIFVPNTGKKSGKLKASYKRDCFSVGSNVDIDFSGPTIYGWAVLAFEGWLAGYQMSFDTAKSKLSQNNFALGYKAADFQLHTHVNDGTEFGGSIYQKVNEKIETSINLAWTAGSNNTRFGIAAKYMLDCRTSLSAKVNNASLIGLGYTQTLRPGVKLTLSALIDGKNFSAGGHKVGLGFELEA
Experimental: (§3) After 5 mg of carboxyl group-type latex particles obtained in Reference Example 1 was dispersed in dioxane, 23 mg of N-hydroxysuccinimide and 38 mg of water-soluble carbodiimide were added, and they were reacted at room temperature (about 20 to 25° C., the same applies below) for 2 hours. After the obtained succinimide-immobilized particles were washed with methanol, they were reacted with 4 mM Compound A (amino derivative of Compound (5)) in 0.5 mL of 0.2M sodium acetate buffer solution (pH 5.3) at room temperature for 1 hour to thereby immobilize Compound A onto the particles. To the obtained particles, 1M aqueous solution of ethanolamine-hydrochloric acid (pH 8.5) was added, and they were reacted at room temperature or 2 hours to thereby block unreacted groups in the succinimide-immobilized particles, after which the particles were washed with 50% methanol and water to give Compound A-immobilized particles. The Compound A-immobilized particles were dispersed in water to obtain a concentration of 10 mg/mL and stored under refrigeration. […]
(§4) Subsequently, centrifugation (15, 000×g, 5 minutes) was carried out, the supernatant was removed, and the obtained particles were washed with 0.05TGEMN buffer. […] After centrifugation (15, 000×g, 5 minutes), the protein-containing supernatant was analyzed by SDS-PAGE. […]

PC12 cells [4] = assay: Mitochondria respiration activity-increasing action using Alamar Blue; format: cell-based; settings: FCS-free DMEM, 3 μmol/L, 3 hours, B-27 addition group = 100%, non-addition group 73.2%±1.9%, mean±standard deviation, n=7
Experimental: The mitochondria respiration activity-increasing action of Compound (5) was evaluated using Alamar Blue.
as §1, with “said culture plate” for “said culture-plate”, “for 3” for “for 4”
as §2, with “10 μL of Alamar Blue solution (Alamar Biosciences),” for “Rodamin 123 (trade name, Molecular Probe),”, “respiration activity” for “membrane potential”, “added;” for “added to obtain a concentration of 1 μmol/L;”, “538” for “485”, “590” for “538”
Furthermore, taking the fluorescence variation in the B-27 addition group as 100%, relative values of fluorescence variation in the Compound (5) addition group and the Compound (5) non-addition group were calculated.

[5] = molecular target: T2, voltage-dependent anion channel (VDAC)-1 (Homo sapiens, UniProt P21796); assay: Identification of Compound (5)-binding protein: elution from Compound A-immobilized latex particles, SDS-PAGE, TOF-MS, immunoblotting; settings: SK-N-SH nuclear fraction protein; elution with 300 μM Compound (5), 4° C., 1.5 hours; silver staining
T2 construct: protein was extracted from the nuclear fraction of human neuroblastoma SK-N-SH (ATCC); endogenous in cells; host or cells: SK-N-SH human neuroblastoma cells (ATCC)
T2 sequence (P21796 whole entry): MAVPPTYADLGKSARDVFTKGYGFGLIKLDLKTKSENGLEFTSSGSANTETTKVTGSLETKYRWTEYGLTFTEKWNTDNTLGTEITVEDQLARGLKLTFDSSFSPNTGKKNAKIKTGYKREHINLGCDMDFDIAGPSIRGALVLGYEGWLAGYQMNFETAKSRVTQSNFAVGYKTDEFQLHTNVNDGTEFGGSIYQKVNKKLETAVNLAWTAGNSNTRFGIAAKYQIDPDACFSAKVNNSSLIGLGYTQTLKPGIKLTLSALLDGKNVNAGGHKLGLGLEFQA
Experimental: as §3, §4

about 30 kDa protein band (VDAC-3) eluted from Compound A-immobilized particles (VDAC-3): eluted selectively
about 32 kDa protein band (VDAC-1) eluted from Compound A-immobilized particles [5]: eluted selectively
Structure (SMILES): Cc1ccccc1OCCCc1oc(-n2ccnc2C)nc1-c1ccc(Cl)cc1 [Compound (5), 4-(4-chlorophenyl)-2-(2-methyl-1-imidazolyl)-5-[3-(2-methylphenoxy)propyl]oxazole]
Amount of cytochrome c leakage (PC12 cells [1]): 7.0 ng/mg
Nucleosome content (PC12 cells [2]): 176%
fluorescence variation (Rodamin 123), relative value (PC12 cells [3]): 110.0%±8.0%
fluorescence variation (Alamar Blue), relative value (PC12 cells [4]): 126.7%±15.7%
